Consider four compounds from the NIST ThermoML archive (doi:10.1016/j.tca.2012.02.020).

For data set [1] the following is noted: Crystal; visual observation.
The nature of data set [2]: Molar enthalpy of transition or fusion. As to conditions: Crystal; DSC.

Numbers after ± are expanded uncertainties.

Regarding `Clc1ccc(Br)cc1` [1-bromo-4-chlorobenzene], the Normal melting temperature in data set [1] stood at 65.00 ± 1 °C. In data set [2], the “Molar enthalpy of transition or fusion” value amounted to 4.76 ± 0.143 kcal/mol.
The like results for `O=Cc1cccc(O)c1` [3-hydroxybenzaldehyde] were, in that order, 103.00 ± 1 °C and 5.76 ± 0.167 kcal/mol.
For `Nc1cccc(O)c1` [3-hydroxybenzenamine] the same measures were 123.00 ± 1 °C and 6.6 ± 0.191 kcal/mol.
The like results for `c1ccc(-c2ccccc2)cc1` [biphenyl] were, in that order, 70.50 ± 1 °C and 4.61 ± 0.143 kcal/mol.
